Measured values reported in patent publication US20240002441A1, “PEPTIDES AND USES THEREOF IN MODULATION OF AMYLOID-BETA PROTEIN DEGRADING PROTEASES” (priority 2020, published 2024).

How the values were obtained:
[1] = test system: Ang II-induced expression of IL-6 and Collagen III in EA.hy926 cells; experiment: Ang II-induced expression of IL-6 and Collagen III in EA.hy926 cells, western blotting (Example 9); format: cell-based
Description: EA.hy926 cells (passage 40) were seeded at a density of 1×10^6 cells/mL. After 24 hours, cells were incubated overnight in reduced serum media. Cells were then treated over 24 h as follows: • 1. Vehicle control • 2. Ang II (10 nM) • 3. […] Ang II (10 nM)+rhACE2 (0.05 ng/μL) • 5.
Following incubation, cells were lysed using lysis buffer (Thermo Fisher Scientific, Cat #89900) containing 1% protease inhibitor (Thermo Fisher Scientific, Cat #1861278). Cell lysate was centrifuged at 13,000 rpm for 10 min. Protein concentration in the supernatant was determined by NanoDrop (Thermo Fisher Scientific, Cat #ND-1000). Supernatants were stored at −30° C. until analysed.
Samples were diluted in SDS-PAGE reducing sample buffer (Bio-Rad Laboratories, Cat #1610747; California, USA) containing 1% β-mercaptoethanol (Bio-Rad Laboratories, Cat #221610710) to reach a final concentration of […]. Prior to loading, samples were heated at 95° C. for 5 min. Samples were loaded into the wells alongside the molecular weight marker (Life Technologies, Cat #LC5800; California, USA). Electrophoresis was conducted at 200 V for 40 min in 1× running buffer. Following protein separation by SDS-PAGE, proteins were blotted onto nitrocellulose membranes at 100 V for 1 h in 1× transfer buffer. The membranes were then blocked in 5% skim milk in 1× Tris-buffered saline (TBST) containing 0.05% Tween 20 (Thermo Fisher Scientific, Cat #28352) for 1 h at room temperature. The membranes were incubated with IL-6 (1:500; Thermo Fisher Scientific, Cat #700480) or collagen III (1:500; Invitrogen, Cat #PA5-27828) primary antibodies while rocking at 4° C. overnight. Membranes were then probed with secondary antibody conjugated with horseradish peroxidase (HRP) (1:6000) for 1 h at room temperature. The HRP-labelled proteins were detected using chemiluminescence SuperSignal™ ECL Western Blotting Substrate (Thermo Fisher Scientific, Cat #34577) at 1:1 ratio. Beta-actin was used as a loading control. Protein bands were analysed using ImageJ (version 1.51) and band density was normalised with the respective beta-actin.

[2] = target: T1, NEP (Homo sapiens, UniProt P08473); experiment: Cleavage of synthetic Aβ40 by NEP, LCMS (Example 7); format: biochemical; details: peptide 9 μM
T1 construct: purchased R & D systems 1182-ZNC-010
Description: Synthetic Aβ40 (0.10 μg/μL) was added to a reaction mixture containing NEP (0.05 ng/μL) pre-incubated with SEQ ID NO:2 or scrambled control (9 μM) for 1 h at 37° C. Synthetic Aβ42 (0.05 μg/μL) was added to a reaction mixture containing NEP (0.15 ng/μL) preincubated with either scrambled control or SEQ ID NO:2 (9 μM) for 1 h at 37° C. Samples containing enzyme alone had only NEP buffer (Table 2). The cleavage reaction was allowed to continue in a thermomixer at 37° C. Aliquots of equal volume were taken over 24 h. Aliquots were immediately acidified with 0.1% trifluoroacetic acid (TFA) to terminate enzyme activity and snap frozen in dry ice. Samples were stored at −80° C. until analysed by LCMS.
Samples were analysed by LC-MS/MS using a quadrupole TOF mass spectrometer (MicroTOFq, Bruker Daltonics, Bremen, Germany) coupled online with a 1200 series nano-HPLC (Agilent technologies, Santa Clara, CA, USA). Samples were injected onto a zorbax 300SB reversed phase trap column with 95% solvent A (0.1% formic acid) at a flow rate of 10 μL/minute. The peptides were eluted over a 10-min gradient to 70% solvent B (80% acetonitrile, 0.1% formic acid) and separated on a 15-cm, 75-μmID zorbax 300SB nanocolumn. The eluent was nebulised and ionised using the Bruker nano-ESI source with a capillary voltage of 4500 V, dry gas at 180° C., flow rate of 5 L/minute and nebuliser gas pressure at 300 mbar. The MS acquisition was in selected ion monitoring mode after selected ion extraction of the MS spectra. Prior to analysis, the qTOF mass spectrometer was calibrated using a 1:50 dilution tuning mix (Agilent technologies, Santa Clara, CA, USA). Data from MS run were processed in Skyline version 19.1.0.193 (Uni. Of Washington, WA, USA) to perform ion chromatogram extractions and peak integrations.

[3] = target: T2, ECE1 (Homo sapiens, UniProt P42892); experiment: QFS plate reader enzyme assay, peptide screen on ECE1 activity (Example 3); format: biochemical; details: peptide 10 ng/μL, ECE1 0.05 ng/μL, 1 h at 37° C.; compared to enzyme alone
T2 construct: purchased R & D systems 1784-ZN-010
T2 sequence (P42892 1-770): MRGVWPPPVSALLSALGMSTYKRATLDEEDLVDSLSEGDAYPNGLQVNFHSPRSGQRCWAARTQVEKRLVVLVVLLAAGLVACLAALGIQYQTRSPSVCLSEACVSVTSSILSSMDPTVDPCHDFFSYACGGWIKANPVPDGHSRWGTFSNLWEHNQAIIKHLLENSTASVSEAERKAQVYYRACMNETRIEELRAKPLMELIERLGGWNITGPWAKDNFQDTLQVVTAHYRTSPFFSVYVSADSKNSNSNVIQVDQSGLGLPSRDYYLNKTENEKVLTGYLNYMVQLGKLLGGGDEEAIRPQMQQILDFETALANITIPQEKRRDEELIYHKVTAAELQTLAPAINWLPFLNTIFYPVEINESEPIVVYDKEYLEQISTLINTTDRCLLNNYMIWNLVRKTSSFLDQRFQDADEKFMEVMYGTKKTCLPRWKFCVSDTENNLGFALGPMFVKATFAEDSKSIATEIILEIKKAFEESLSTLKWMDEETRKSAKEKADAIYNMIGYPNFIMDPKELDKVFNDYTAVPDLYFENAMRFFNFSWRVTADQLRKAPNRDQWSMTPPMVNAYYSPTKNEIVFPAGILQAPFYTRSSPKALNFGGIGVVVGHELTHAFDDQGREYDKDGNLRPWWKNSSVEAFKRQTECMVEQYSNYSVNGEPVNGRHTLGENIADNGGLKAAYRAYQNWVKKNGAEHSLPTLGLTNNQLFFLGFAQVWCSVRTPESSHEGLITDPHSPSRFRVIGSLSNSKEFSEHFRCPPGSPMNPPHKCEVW
Description: (§1) Plate reader-based enzyme assays were performed using a quenched fluorescent substrate (QFS) in a 96-well format using a SpectraMAX M4 Microplate reader (Molecular Devices). The increase in fluorescence following addition of QFS (40 μM) was taken as evidence of enzyme activity. Fluorescence was monitored over 2 h at 37° C. using κEx=320 nm and λEm=405 nm. Assays were conducted in black 96-well plates. Specific enzyme activity was expressed as a rate of substrate cleavage calculated using a standard curve of 7-methoxy-coumarin-4-acetic acid.
(§2) In all plate reader-based enzyme assays using QFS, the reaction rate (μmol of substrate cleaved/min) was calculated using linear regression analysis (GraphPad Prism software version 8.01). The reaction rates calculated were used to generate the enzyme kinetic parameters Vmax and Km through non-linear regression analysis (GraphPad Prism software, version 8.01; Michaelis-Menten equation). Where indicated, enzyme activity in the presence of peptide was expressed as a % of the enzyme alone. Data were expressed as mean±SEM and statistical significance was determined using t-tests or one-way ANOVAs followed by Tukey's post-hoc test. P<0.05 was considered as statistically significant. In all assays conducted using 96-well plates, the reaction mixtures in each well were considered an independent experiment.
(§3) SEQ ID NOS: 1, 5 and 9-15 were screened for their effects on NEP and ECE1 using a high-throughput QFS assay using the method in Example 2 and the following procedure. NEP or ECE1 (0.05 ng/μL) was incubated with each peptide (10 ng/μL) for 1 h at 37° C.

[4] = test system: HEK293 cells; experiment: Peptide stability study in HEK293 cells, LCMS (Example 4); format: in vitro ADME; details: peptide 9 μM, Opti-MEM, 60 min
Description: (§4) SEQ ID NO:2 was prepared as a C-terminal amidated analogue of SEQ ID NO:1. The stability of SEQ ID NO:1 and SEQ ID NO:2 was assessed in HEK293 and EA.hy926 cells grown in culture and their break down was monitored by LCMS over 60 min using the following procedure.
(§5) HEK293 (passage 24) or Ea.hy926 (passage 37) were seeded into tissue-culture-grade 96-well plates at a density of 20,000 cells/well. After 24 hr, cells were washed with PBS and replaced with Opti-MEM reduced serum media containing SEQ ID NO:1 or SEQ ID NO:2 (9 μM). Aliquots of equal volume were taken at T=0 and 60 min. SEQ ID NO:2 was added to control wells having media (no cells) only. Samples were immediately acidified in 0.1% TFA, snap frozen in dry ice and stored in −80° C. until analysed by LCMS.
(§6) Samples were analyzed by LC-MS/MS on a Shimadzu Nexera uHPLC (Japan) coupled to a Triple Tof 5600 mass spectrometer (ABSCIEX, Canada) equipped with a duo electrospray ion source. One μL of each extract was injected onto a 2.1 mm×100 mm Zorbax C18 1.8 um column (Agilent) at 200 μL/min. […] SEQ ID NO:1 and SEQ ID NO:2 were quantified using the […] doubly charged molecular ion from m/z 510.270 to 510.325. The data was acquired using Analyst TF 1.6 and quantification was carried out using MultiQuant 2.1.1 software (ABSCIEX, Canada).

[5] = test system: EA.hy926 cells; experiment: Peptide stability study in EA.hy926 endothelial cells, LCMS (Example 4); format: in vitro ADME; details: peptide 9 μM, Opti-MEM
Description: as §4, §5, §6

[6] = target: T1, NEP; experiment: QFS plate reader enzyme assay, peptide screen on NEP activity (Example 3); format: biochemical; details: peptide 10 ng/μL, NEP 0.05 ng/μL, 1 h at 37° C.; compared to enzyme alone
Description: as §1, §2, §3

[7] = target: T1, NEP; details: Smith A I et al., (2016) Scientific reports 6:22413; cited from earlier work
[8] = target: T2, ECE1; details: Smith A I et al., (2016) Scientific reports 6:22413; cited from earlier work
[9] = Ang II 10 nM + peptide 26 μM + rhACE2 0.05 ng/μL + MLN-4760 10 μM

T1 sequence (P08473 whole entry): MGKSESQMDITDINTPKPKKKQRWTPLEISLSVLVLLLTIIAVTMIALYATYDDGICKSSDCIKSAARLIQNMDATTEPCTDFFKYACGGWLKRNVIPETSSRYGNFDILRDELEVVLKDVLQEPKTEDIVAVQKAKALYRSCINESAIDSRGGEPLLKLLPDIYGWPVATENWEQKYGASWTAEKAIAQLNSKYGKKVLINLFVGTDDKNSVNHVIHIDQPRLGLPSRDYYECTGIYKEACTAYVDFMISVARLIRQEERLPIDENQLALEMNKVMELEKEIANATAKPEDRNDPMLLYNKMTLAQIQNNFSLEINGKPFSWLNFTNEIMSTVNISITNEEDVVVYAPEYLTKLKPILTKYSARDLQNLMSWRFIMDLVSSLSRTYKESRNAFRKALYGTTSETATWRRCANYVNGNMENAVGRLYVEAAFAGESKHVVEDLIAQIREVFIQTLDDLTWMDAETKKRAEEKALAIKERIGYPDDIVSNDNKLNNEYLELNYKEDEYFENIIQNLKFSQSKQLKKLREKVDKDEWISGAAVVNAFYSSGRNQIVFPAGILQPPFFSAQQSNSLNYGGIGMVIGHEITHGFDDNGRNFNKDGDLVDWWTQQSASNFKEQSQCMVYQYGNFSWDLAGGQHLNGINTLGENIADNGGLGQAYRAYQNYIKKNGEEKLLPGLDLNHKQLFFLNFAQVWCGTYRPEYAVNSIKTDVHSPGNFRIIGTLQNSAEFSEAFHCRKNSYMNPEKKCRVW

CC(C)C[C@H](N[C@@H](Cc1cncn1Cc1cc(Cl)cc(Cl)c1)C(=O)O)C(=O)O [MLN-4760, reference compound]
Collagen III expression in the presence of ACE2 inhibitor MLN-4760 [1, 9]: 75±14% | IL-6 expression in the presence of MLN-4760 [1, 9]: no difference

Ang II: Angiotensin II, potent vasoconstrictor with fibrotic and inflammatory effects; stimulus in EA.hy926 cells (DRVYIHPF; Angiotensin-2; UniProt P01019 25-32, looked up) [reference compound]
Collagen III expression ([1]; EA.hy926 cells, 24 h, Ang II 10 nM alone, or Ang II and 2A (26 μM)): 141±30% | IL-6 expression ([1]; EA.hy926 cells, Ang II 10 nM, 24 h, band density normalised with beta-actin): 152±8%

H-KILGILFMSE-OH [scrambled control, reference compound]
decrease in Aβ1-21 and increase in Aβ1-12 ([2]; Aβ40 cleavage): not observed | peak area corresponding to Aβ1-12 after 24 h ([2]; Aβ40 cleavage, 24 h): 9.7×10^6±2.1×10^6 arbitrary units | amount of Aβ40 remaining after 4 h (peak area) ([2]; NEP 0.05 ng/μL, Aβ40 0.10 μg/μL, 4 h): 6.4×10^6±1.7×10^6 arbitrary units

H-SLFELGKMIL-OH [SEQ ID NO:1, H2N-SLFELGKMIL-OH]
ECE1 activity [3]: no effect | amount remaining in the medium of HEK293 cells [4]: 29%±3% | relative amount remaining in the medium of endothelial cells at 60 min [5]: 23%±2.4% | NEP activity [6]: significant increase

H-SLFELGKMILQE-OH [SEQ ID NO:5]
ECE1 activity [3]: no effect | NEP activity [6]: significant increase

H-SLFELGKMILQETG-OH [SEQ ID NO:12]
ECE1 activity [3]: significantly stimulate | NEP activity [6]: significantly stimulate

H-SLFELGKMILQETGKN-OH [SEQ ID NO:11]
ECE1 activity [3]: significantly stimulate | NEP activity [6]: significantly stimulate

H-SLFELGKMILQETGKNPAKS-OH [SEQ ID NO:9]
ECE1 activity [3]: significantly stimulate | NEP activity (previous studies) [7]: directly increase the activity | ECE1 activity (previous studies) [8]: directly increase the activity | NEP activity [6]: significantly stimulate

rhACE2: Recombinant human ACE2 (Cat #933-ZN-010) purchased from R & D systems
Collagen III expression compared to cells treated with Ang II alone ([1]; Ang II 10 nM plus 2A 26 μM and/or ACE2 0.05 ng/μL, 24 h): significantly lower | IL-6 expression compared to cells treated with Ang II alone ([1]; Ang II 10 nM plus peptide 26 μM and/or rhACE2 0.05 ng/μL, 24 h): significantly lower
